Measured values taken from patent US20100256179A1, “COMBINATION THERAPY FOR PAIN IN PAINFUL DIABETIC NEUROPATHY” (UCB PHARMA GMBH, priority 2004, published 2010).

System: formalin-induced flinching and licking response of the affected paw
Assay: rat formalin paw test (late phase)
Assay type: in vivo
Settings: for decrease in number of flinches as compared with vehicle controls: non-significant
Protocol: Rats were given an intraplantar injection of 5% formalin (50 μl) into the posterior left paw. This treatment induces a recognizable flinching and licking response of the affected paw in control animals. The number of flinches was counted for 15 minutes, beginning 20 minutes after injection of formalin. The time spent licking the affected paw was also recorded.
Male Rj: Wistar (Han) rats, 10 per group, weighing 100-130 g at the beginning of the experiments were studied per group. The test was performed blind.

[1] = Example 4, duloxetine 8 mg/kg i.p.
[2] = Example 2, gabapentin 50 mg/kg i.p.
[3] = Example 2, gabapentin 100 mg/kg i.p.
[4] = Example 2, gabapentin alone at 50 mg/kg
[5] = Example 5, memantine 4 mg/kg i.p.
[6] = Example 5, memantine 8 mg/kg i.p.
[7] = Example 3, morphine 2 mg/kg i.p.
[8] = Example 3, morphine 4 mg/kg i.p.

CNCC[C@H](Oc1cccc2ccccc12)c1cccs1 [Duloxetine]
effects on number of flinches and time spent licking (Example 4, duloxetine 8 mg/kg alone): no clear effects
Licking time % change (a): compared with vehicle control [1]: −26% (a)
Licking time (seconds) mean ± SEM [1]: 195.5 ± 45.0 s
No. of flinches % change (a): compared with vehicle control [1]: −1% (a)
No. of flinches mean ± SEM [1]: 149.6 ± 27.3

NCC1(CC(=O)O)CCCCC1 [Gabapentin]
Licking time % change (a): compared with vehicle control [2]: −28% (a)
Licking time (seconds) mean ± SEM [2]: 161.0 ± 27.3 s
No. of flinches % change (a): compared with vehicle control [2]: −24% (a)
No. of flinches mean ± SEM [2]: 97.4 ± 23.8
Licking time % change (a): compared with vehicle control [3]: −60% (a)
Licking time (seconds) mean ± SEM [3]: 90.0 ± 22.5 s
No. of flinches % change (a): compared with vehicle control [3]: −31% (a)
No. of flinches mean ± SEM [3]: 88.1 ± 19.4
decrease in time spent licking [4]: 28%
decrease in number of flinches as compared with vehicle controls [4]: 24%
decrease in number of flinches as compared with vehicle controls (Example 2, gabapentin alone at 100 mg/kg): 31%
decrease in time spent licking (Example 2, gabapentin alone at 100 mg/kg, p<0.05): 60%

CC12CC3CC(C)(C1)CC(N)(C3)C2 [Memantine]
Licking time % change (a): compared with vehicle control [5]: +25% (a)
Licking time (seconds) mean ± SEM [5]: 219.9 ± 21.8 s
No. of flinches % change (a): compared with vehicle control [5]: −3% (a)
No. of flinches mean ± SEM [5]: 161.4 ± 26.3
Licking time % change (a): compared with vehicle control [6]: +35% (a)
Licking time (seconds) mean ± SEM [6]: 237.3 ± 18.9 s
No. of flinches % change (a): compared with vehicle control [6]: −20% (a)
No. of flinches mean ± SEM [6]: 132.3 ± 24.6
increase in time spent licking (Example 5, memantine alone at 4 mg/kg, p=0.0537): 25%
increase in time spent licking (Example 5, memantine alone at 8 mg/kg, p<0.05): 35%
number of flinches as compared with vehicle controls (Example 5, memantine alone at 4 and 8 mg/kg): did not clearly affect

CN1CC[C@]23c4c5ccc(O)c4O[C@H]2[C@@H](O)C=C[C@H]3[C@H]1C5 [Morphine]
Licking time % change (a): compared with vehicle control [7]: −1% (a)
Licking time (seconds) mean ± SEM [7]: 289.3 ± 30.7 s
No. of flinches % change (a): compared with vehicle control [7]: −7% (a)
No. of flinches mean ± SEM [7]: 139.5 ± 25.3
Licking time % change (a): compared with vehicle control [8]: −20% (a)
Licking time (seconds) mean ± SEM [8]: 234.9 ± 37.3 s
No. of flinches % change (a): compared with vehicle control [8]: −37% (a)
No. of flinches mean ± SEM [8]: 94.3 ± 21.1
number of flinches and time spent licking as compared with vehicle controls (Example 3, morphine alone at 2 and 4 mg/kg, effects did not reach statistical significance): dose-dependently decreased
